“Also recorded” adds a separate entry of the source. Like-named read-outs stand apart in the source and are kept apart here.
How the values were obtained:
human α4β2 nAChRs = molecular target: T1, human α4β2 nAChRs (Homo sapiens, UniProt P17787+P43681); test: cell-based; format: cell-based; settings: for voltage dependence of the fractional block at the steady state: NNN 10 μM with 10 μM nicotine, NNK 1 μM with 100 nM nicotine, different Vm; for Imax/Inico: maximal current relative to nicotine, whole-cell; for functional behaviour on α4β2 nAChRs: patch-clamp
T1 construct: expressed in transfected cells
T1 sequence (P43681 29-627 limits assumed): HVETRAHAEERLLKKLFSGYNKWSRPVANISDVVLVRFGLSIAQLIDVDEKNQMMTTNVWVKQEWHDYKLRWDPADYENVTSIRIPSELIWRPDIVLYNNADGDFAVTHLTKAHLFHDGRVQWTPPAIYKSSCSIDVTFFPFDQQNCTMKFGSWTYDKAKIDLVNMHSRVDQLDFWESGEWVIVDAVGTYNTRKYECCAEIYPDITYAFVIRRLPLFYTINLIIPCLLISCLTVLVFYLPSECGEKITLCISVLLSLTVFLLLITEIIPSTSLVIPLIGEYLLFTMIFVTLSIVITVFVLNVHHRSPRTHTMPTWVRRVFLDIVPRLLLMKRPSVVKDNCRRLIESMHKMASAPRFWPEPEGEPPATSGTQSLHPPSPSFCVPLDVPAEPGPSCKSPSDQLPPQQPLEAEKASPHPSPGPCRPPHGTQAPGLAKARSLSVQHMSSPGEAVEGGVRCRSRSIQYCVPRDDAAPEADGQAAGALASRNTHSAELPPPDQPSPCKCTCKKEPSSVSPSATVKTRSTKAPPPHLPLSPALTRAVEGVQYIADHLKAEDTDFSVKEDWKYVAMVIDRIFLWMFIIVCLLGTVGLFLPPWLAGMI
T1 sequence (P17787 26-502): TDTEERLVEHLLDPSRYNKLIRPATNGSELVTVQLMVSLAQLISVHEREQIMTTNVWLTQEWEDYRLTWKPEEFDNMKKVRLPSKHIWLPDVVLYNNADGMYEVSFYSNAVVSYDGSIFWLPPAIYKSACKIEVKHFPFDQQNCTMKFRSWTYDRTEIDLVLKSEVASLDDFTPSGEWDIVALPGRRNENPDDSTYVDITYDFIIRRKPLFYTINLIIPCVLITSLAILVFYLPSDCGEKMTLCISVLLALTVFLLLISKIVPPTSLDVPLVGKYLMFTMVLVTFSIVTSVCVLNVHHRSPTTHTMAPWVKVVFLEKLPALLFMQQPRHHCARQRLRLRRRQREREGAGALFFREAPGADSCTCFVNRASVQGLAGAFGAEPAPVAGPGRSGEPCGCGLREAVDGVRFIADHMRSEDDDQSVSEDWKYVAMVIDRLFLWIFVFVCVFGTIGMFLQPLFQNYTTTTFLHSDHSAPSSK
Experimental: HEK 293 cells stably expressing human α4β2 nAChRs were cultured by standard methods (Di Resta et al., [2010]). In brief, cultures were maintained in Dulbecco's modified Eagle's medium (Hyclone Laboratories), supplemented with 10% fetal calf serum (Hyclone), 4.5 g/l glutamine, […] hygromycin β, and 0.25 μg/ml amphoterycin B. Cells were grown at 37°C and 5% CO2. For patch-clamp experiments, cells were harvested by treatment with trypsin and plated onto 35 mm Petri dishes (Corning Inc.).
Cells were voltage-clamped by using the whole-cell configuration of the patch-clamp method. Currents were registered with an Axopatch 200B amplifier (Molecular Devices), at room temperature (20–22°C). Micropipettes (3–4 MΩ) were pulled from borosilicate capillaries (GMBH) with a P-97 Flaming/Brown Micropipette Puller (Sutter Instrument Co.). The cell capacitance and series resistance (up to about 75%) were always compensated. Currents were low-pass filtered at 2 kHz and acquired on-line at 5–10 kHz with Molecular Devices hardware and software (pClamp 8 and Axoscope 8). After patch rupture, we usually allowed 1–2 min for pipette solution exchange and signal stabilization, before applying our stimuli. Extracellular solutions were applied with an RSC-160 Rapid Solution Changer (BioLogic Science Instruments). The solution is delivered to the cells through borosilicate capillaries connected to Tygon tubes. Seven independent lines are available. […] The perfusing line was totally substituted whenever the drug was changed.
Unless otherwise indicated, chemicals, and drugs were purchased by Sigma-Aldrich Italia Srl. The extracellular solution contained (mM): NaCl 130, KCl 5, CaCl2 2, MgCl2 2, HEPES 10, D-glucose 5 (pH 7.4; adjusted with NaOH). Pipettes contained (mM): K-aspartate 120, NaCl 10, MgCl2 2, CaCl21.3, EGTA-KOH 10, HEPES 10, MgATP 1, (pH 7.3; adjusted with KOH). […] NNK and NNN (20 mM) were dissolved in water and kept refrigerated for no longer than 1 week. […] The final concentrations were obtained by serial dilution.
Data were analyzed with Clampfit 9.2 (Molecular Devices) and OriginPro 9 (OriginLab Co.). Theoretical curves best fitting the data were determined by a nonlinear least-squares method (Levenberg-Marquardt algorithm). For nAChR activation we used both a simple Hill function and the sum of two Hill expressions (Covernton and Connolly, [2000]). The single-term expression was:
The two-terms Hill expression was:
(2) IL/Imax=A/(1+EC50high/[L])^nH1+1-A/(1+EC50low/[L])^nH2
where A is the fraction of receptors in the high-affinity state; EC50high and EC50low are the EC50 values of the components at high and low affinity, respectively; nH1 and nH2 are the corresponding Hill coefficients, and the other symbols are as in Equation (1).
The function used to fit the desensitization data points (Figure 3) was:
(3) ISS/Ipeak=B+1-B/(1+[L]/IC50)^nH
ISS was found by fitting the current decay with a single exponential function and taking the steady state value of this function. A similar function was used to fit the fractional inhibition in Figures 4B, 5B.
(4) y=αNic[Nic]/EC50+αNNK[NNK]/EC50(NNK)/1+[Nic]/EC50+[NNK]/EC50(NNK)

(α7)5 nAChR = test system: (α7)5 nAChR; design: method as in Dani and Bertrand, [2007]; settings: homopentameric receptors such as (α7)5; ref Dani and Bertrand, [2007]; cited from earlier work
[1] = cited from earlier work
[2] = test system: epibatidine-sensitive nAChRs; design: method as in Schuller, [2007]; settings: SCLC cells, ref Schuller, [2007], read-out: EC50 measured in binding studies; cited from earlier work
α3β4 nAChR = test system: α3β4 nAChR; design: method as in Nunes-Alves et al., [2012]; settings: in the presence of 100 μM nicotine; ref Nunes-Alves et al., [2012]; cited from earlier work
muscle subtype nAChR = test system: muscle subtype nAChR; design: method as in Nunes-Alves et al., [2012]; settings: ref Nunes-Alves et al., [2012]; cited from earlier work
[3] = two-terms Hill fit (Equation 2)

CN1CCC[C@H]1c1cccnc1 [Nicotine, nicotine, reference compound]
average current (human α4β2 nAChRs): 89.4 ± 19.4 pA | nH of nicotine alone (Figure 4C) (human α4β2 nAChRs): 0.83 | nH of nicotine in the presence of 1 nM NNN (human α4β2 nAChRs): 0.92 | nH of nicotine in the presence of 1 μM NNN (human α4β2 nAChRs): 1 | peak current (human α4β2 nAChRs): 119 ± 24 pA | EC50 ((α7)5 nAChR): […] | plasma nicotine concentration immediately after smoking ([1]; smokers, ref Schaal and Chellappan, [2014]): […]

CN(CCCC(=O)c1cccnc1)N=O [NNK, 4-(methylnitrosamine)-1-(3-pyridyl)-1-butanone]
EC50 [2]: ~17 µM | peak current (human α4β2 nAChRs; 10 nM nicotine plus 1 μM NNK, n = 11): 160 ± 30 pA | average current (human α4β2 nAChRs; 100 nM nicotine plus 100 μM NNK, n = 8): 159.1 ± 25.1 pA | potentiation of the current activated by nicotine (human α4β2 nAChRs; 1 μM NNK on 0.01 μM nicotine): 26% | concentration of nicotine at which NNK reversed its effect (human α4β2 nAChRs; 1 μM NNK, estimated by fit with Equation 4): around 20 nM | average peak current density (human α4β2 nAChRs; 10 μM NNK alone, −80 mV, n = 9): 5.75 ± 1.22 pA/pF | concentration of nicotine at which sign reversal of NNK effect occurs (human α4β2 nAChRs; 100 μM NNK): approximately 400 nM | potentiation of the current activated by nicotine (human α4β2 nAChRs; 100 μM NNK on 100 nM (0.1 μM) nicotine, −80 mV): approximately 80% | measured peak current relative to the value in the presence of 300 μM nicotine (human α4β2 nAChRs; 100 μM NNK, −80 mV, n = 13): 0.14 ± 0.02 | nH of desensitization curve (human α4β2 nAChRs; Equation 3): 0.9 | inhibition at 100 µM (human α4β2 nAChRs; HEK293, read-out: inhibition of the current elicited by nicotine): 40% | nicotine concentrations whose currents are potentiated by co-applied NNK (human α4β2 nAChRs; NNK co-applied with nicotine): ≤ 100 nM | effect on the currents activated by 10 μM nicotine (human α4β2 nAChRs; NNK concentrations up to 100 nM): no effect | voltage dependence of the fractional block at the steady state (human α4β2 nAChRs): independent of the applied Vm | nH, Hill coefficient of single-term Hill fit (Equation 1) (human α4β2 nAChRs; activation by agonist alone, −80 mV): 0.44 | nH of inhibition curve (human α4β2 nAChRs; currents activated by 10 μM nicotine, Equation 3): 0.95 | fit parameters αNIC / αNNK of Equation 4 (human α4β2 nAChRs; fit of data with 1 μM NNK plus nicotine (Figure 5C)): 5 µM | estimated maximal current activated by NNK, % of the current elicited by 300 μM nicotine (human α4β2 nAChRs; from Equation 1 fit, −80 mV): approximately 16% | Imax/Inico (human α4β2 nAChRs; −80 mV): 0.16 | functional behaviour on α4β2 nAChRs (human α4β2 nAChRs): partial agonist | IC50 (human α4β2 nAChRs; read-out: Desensitization IC50, fractional steady state current ISS/Ipeak vs agonist concentration, Equation 3): 1.7 µM | EC50 (human α4β2 nAChRs; read-out: EC50 (single-term Hill, Equation 1), peak whole-cell currents at −80 mV, activation by agonist alone): 16.7 µM | EC50 (human α4β2 nAChRs; read-out: EC50high, high-affinity component, two-terms Hill fit (Equation 2)): 0.035 µM | EC50 (human α4β2 nAChRs; read-out: EC50low, low-affinity component, two-terms Hill fit (Equation 2)): 12.8 µM | IC50 (human α4β2 nAChRs; read-out: Inhibition IC50, with 10 μM nicotine, steady state fractional current, −80 mV): > 100 µM | Hill coefficient of the high-affinity component (nH1 in Table 1) (human α4β2 nAChRs; [3]): 1.2 | Hill coefficient of the low-affinity component (nH2 in Table 1) (human α4β2 nAChRs; [3]): 1.4 | NNK concentrations that elicited inward currents (human α4β2 nAChRs; −80 mV, NNK alone): higher than 10 nM

O=NN1CCC[C@H]1c1cccnc1 [NNN, N'-nitrosonornicotine]
IC50 (α3β4 nAChR): 1140 µM | effect on the muscle subtype (muscle subtype nAChR): little effect | voltage dependence of the fractional block at the steady state (human α4β2 nAChRs): independent of the applied Vm | Imax/Inico (human α4β2 nAChRs; −80 mV): 0 | functional behaviour on α4β2 nAChRs (human α4β2 nAChRs): pure inhibitor | IC50 (human α4β2 nAChRs; read-out: Inhibition IC50): ~0.001 µM | IC50 (human α4β2 nAChRs; with 10 μM nicotine, steady state fractional current, −80 mV, read-out: Inhibition IC50): 0.00021 µM | nAChR activation (whole-cell current) by the compound alone (human α4β2 nAChRs; −80 mV, NNN 10 μM and up to 100 μM): never produced nAChR activation; also recorded: did not elicit any whole-cell current | concentrations normally encountered in smokers' plasma ([1]; ref Schuller, [2007]): < 0.1 nM
